For one molecule, MIC results are on record in US20190345199A1, “LIPOLANTHIPEPTIDES AND THEIR USES AS ANTIMICROBIAL AGENTS” (DEINOVE, priority 2017, published 2019).

Common to all, as to assay type: cell-based
One experiment concerns Enterococcus faecium. As to the kind of experiment: MIC, CLSI dilution antibacterial susceptibility test. The method, then: (§1) The measures of activities were conducted on compound NOC1 from Nocardia terpenica following the protocol recommended by the Clinical and Laboratory Standards Institute (CLSI)—Clinical and Laboratory Standards Institute (CLSI, formerly NCCLS): Methods for Dilution Antibacterial Susceptibility Tests for Bacteria That Grow Aerobically; Approved Standard—Tenth Edition (2015). Clinical and Laboratory Standards Institute Document M07-A10.
(§2) The measures of activities were conducted on compounds A, B and C, following the protocol recommended by the Clinical and Laboratory Standards Institute (CLSI)—Clinical and Laboratory Standards Institute (CLSI, formerly NCCLS):
(§3) Methods for Dilution Antibacterial Susceptibility Tests for Bacteria That Grow Aerobically; Approved Standard—Tenth Edition (2015). Clinical and Laboratory Standards Institute Document M07-A10.

The subject of the next experiment is Staphylococcus aureus. The experiment is described as above. To be noted: read-out: Minimal Inhibitory Concentration (MIC). The method, then: as §1, §2, §3
The test system of another experiment is Bacillus subtilis. The experiment is described as above. Particulars: Bacillus subtilis ATCC6633. As to the method: as §1
The test system of a further experiment is Enterococcus faecalis. Described as above. As to the method: as §1
A further experiment has as its system Candida albicans. As to the kind of experiment: MIC, extended antimicrobial activities (fungi). To be noted: Candida albicans ATCC10231.
A further experiment concerns Candida parapsilosis. As to the kind of experiment: MIC, extended antimicrobial activities (fungi). To be noted: Lodderomyces parapsilosis; Candida parapsilosis DSMZ5784. The method, then:
as §1

The next experiment has as its system Candida tropicalis. As to the kind of experiment: MIC, extended antimicrobial activities (fungi). Particulars: Candida tropicalis DSMZ11953. As to the method: as §1
Another experiment concerns Candida krusei. The experiment is described as follows: MIC, extended antimicrobial activities (fungi). To be noted: Pichia kudriavzevii; Candida krusei DSMZ6128.
For another experiment, the system named is Candida glabrata. The experiment is described as follows: MIC, extended antimicrobial activities (fungi). To be noted: Nakaseomyces glabratus; Candida glabrata DSMZ6425.
The test system of a further experiment is Cryptococcus neoformans. As to the kind of experiment: MIC, extended antimicrobial activities (fungi). Particulars: Cryptococcus neoformans DSMZ6972.

Structures are written as SMILES. ≈ marks a conversion by molar mass, not a printed value. Where two headings read alike, the source gives them in different places.

Regarding `CCC(C)C1NC(=O)C(NC(=O)C(C)NC(=O)/C=C/C=C/CC/C=C/CCCCN/C(=N/C)NC)CC2(CS/C=C\NC(=O)CNC(=O)C(CC(N)=O)NC2=O)NC(=O)C(CO)NC1=O` (stereo not shown) [NOC1], the MIC against Enterococcus faecium (Enterococcus faecium ATCC19434, vancomycin sensitive) worked out at 8 µg/mL (≈ 8.59 µM); in the experiment on Enterococcus faecium (Enterococcus faecium ATCC51559, vancomycin resistant (gene vanA)) it was 16 µg/mL (≈ 17.2 µM); against Enterococcus faecium (Enterococcus faecium ATCC51858, vancomycin resistant (gene vanB)), 16 µg/mL (≈ 17.2 µM); with Staphylococcus aureus (S. aureus ATTC 1683 (ATCC1683), methicillin resistant) it was 16 µg/mL (≈ 17.2 µM); with Staphylococcus aureus (S. aureus ATTC 13709 (ATCC13709), fully susceptible / methicillin sensitive), 2 µg/mL (≈ 2.15 µM); with Staphylococcus aureus (S. aureus ATTC 25923 (ATCC25923), methicillin sensitive) it was 2 µg/mL (≈ 2.15 µM). The MIC in the experiment on Staphylococcus aureus (S. aureus USA300, methicillin resistant) turned out to be 60 µg/mL (≈ 64.4 µM); in the experiment with Bacillus subtilis it was 2 µg/mL (≈ 2.15 µM); in the experiment with Enterococcus faecalis (Enterococcus faecalis ATCC29212, vancomycin sensitive) it was 160 µg/mL (≈ 172 µM); against Enterococcus faecalis (Enterococcus faecalis ATCC700802, vancomycin resistant (gene vanB)), 16 µg/mL (≈ 17.2 µM); with Candida albicans, 3 µg/mL (≈ 3.22 µM); in the experiment on Candida parapsilosis it was 24 µg/mL (≈ 25.8 µM). Besides, the MIC was 6 µg/mL (≈ 6.44 µM) against Candida tropicalis, 12 µg/mL (≈ 12.9 µM) in the experiment with Candida krusei, 12 µg/mL (≈ 12.9 µM) in the experiment on Candida glabrata and 24 µg/mL (≈ 25.8 µM) in the experiment with Cryptococcus neoformans.
